As a reminder, the pKa is the negative logarithm of the acid dissociation constant. A lower pKa goes with a group that gives up its proton readily.

This data set in a line: thermodynamic acid dissociation constant (pKa) of pH sensitive reagents. The data set is classed as physicochemical. The conditions noted are these: reagent properties used in simulations.

The structures appear in SMILES notation.

With `O=S1(=O)OC(c2ccc(O)c(Cl)c2)(c2ccc(O)c(Cl)c2)c2ccccc21` [Chlorophenol Red], the pKa is on record as 6.11. With `O=S1(=O)OC(c2cc(Br)c(O)c(Br)c2)(c2cc(Br)c(O)c(Br)c2)c2ccccc21` [Bromophenol Blue] the figure was 4.11.

These data come from US7432109B2, “Spetroscopic pH measurement using optimized mixtures of reagents to extend measurement range” (Schlumberger Technology Corporation, priority 2002, dated 2008).
